Assay results from US9980894B2, “Cosmetic compositions comprising hyaluronan biosynthesis promoting agents” (Symrise AG, priority 2012, dated 2018).
Entries after “also recorded” stand apart in the source; their conditions may differ. Like-named read-outs stand apart in the source and are kept apart here.

Experiments:
[1] = system: Normal Human Epidermal Keratinocytes (NHEK); test: Cellular in vitro hyaluronan assay on normal human epidermal keratinocytes (hyaluronic acid ELISA); type: cell-based; settings: for Mean hyaluronan stimulation, fold less than that of the positive control retinol: compounds at 0.25 μM versus retinol at 0.1 μM; for Effect on hyaluronan production of epidermal keratinocytes (in words): in vitro; for Mean hyaluron stimulation vs. control: 16 h
Description: NHEK are seeded into a 24 well plate at a concentration of 2.5×10^4 cells/well. Cells are incubated at 37° C. and 5% CO2 in keratinocyte medium until they are 70-80% confluent. Then the medium is withdrawn, cells are washed with PBS and the test compounds dissolved in keratinocyte medium are added. After incubation for 16 h in the presence of the test compounds, the culture medium is collected and hyaluronan is determined by a hyaluronic acid ELISA detection kit (Corgenix) which is performed according to the supplier instructions. The stimulation of the hyaluronan biosynthesis in the presence of the test compounds is calculated according to the following equation: Hyaluronan stimulation [%]=([…]×100)−100 with • HAcontrol=hyaluronan content in ng/ml of the medium from cells treated with control • HAtest compound=hyaluronan content in ng/ml of the medium from cells treated with test compound

[2] = system: B16 melanoma cell line; settings: cited from earlier work
[3] = system: Normal Human Dermal Fibroblasts (NHDF); test: Cellular in vitro hyaluronan assay on normal human dermal fibroblasts (hyaluronic acid ELISA); type: cell-based; settings: for Mean hyaluronan stimulation compared with positive control TGF-b1: cassione 0.25 μM, [6]-paradol 0.025 μM versus TGF-b1 1 ng/ml; for Effect on hyaluronan production of dermal fibroblasts (in words): in vitro; for Mean hyaluron stimulation vs. control: 16 h
Description: NHDF are seeded into a 24 well plate at a concentration of 1.5×10^4 cells/well. Cells are incubated at 37° C. and 5% CO2 in fibroblast medium containing 10% fetal bovine serum (FBS) until they are 70-80% confluent. Then the medium is withdrawn, cells are washed with PBS and the test compounds dissolved in fibroblast medium without FBS are added. After incubation for 16 h in the presence of the test compounds, the culture medium is collected and hyaluronan is determined by a hyaluronic acid ELISA detection kit (Corgenix) which is performed according to the supplier instructions. The stimulation of the hyaluronan biosynthesis in the presence of the test compounds is calculated according to the following equation: Hyaluronan stimulation [%]=([…]×100)−100 with • HAcontrol=hyaluronan content in ng/ml of the medium from cells treated with control • HAtest compound=hyaluronan content in ng/ml of the medium from cells treated with test compound

[4] = system: ex vivo human skin; test: Hyaluronan assay on ex vivo human skin (Alcain blue staining, image analysis); type: cell-based
Excerpt: Human skin obtained from plastic surgery is cut into pieces of approximately 7×3 mm (diameter×thickness). 6 skin samples are used for each treatment. The skin samples are placed on a cotton pad soaked with culture medium (modified Williams'E medium). Control and hydrodispersion gels (as described in more detail below) without (=placebo) and with the test compound, respectively, are applied topically on day 0 and the application is renewed on day 1. On day 2, skin samples are fixed, histological sections are prepared and subsequent histochemically stained by Alcain blue. After that, pictures are taken from each section and dermal and epidermal hyaluronan is quantified by image analysis of a selected region of interest. To do so, the histochemical staining is divided in three different color channels with an algorithm specific for Alcain blue staining and the distribution and intensity of the blue colour channel which is specific for hyaluronan is analysed. Hyaluronan stimulation [%]=([…]×100)−100 with • HAcontrol=hyaluronan score of the skin sample treated with control • HAtest compound=hyaluron score of the skin sample treated with test compound
The hydrodispersion gels used had the composition as set out in Table 4: […]

[5] = listed as compound of formula IV
[6] = 0.0001% [6]-paradol containing gel versus placebo gel
[7] = 0.0001 % in hydrodispersion gel, topical on day 0 and day 1, analysed day 2

CC(=O)CCc1ccc2c(c1)OCO2 [Cassione, 4-(3,4-methylendioxyphenyl)-2-butanone]
Mean hyaluronan stimulation, fold less than that of the positive control retinol [1]: 1.9 fold
Effect on hyaluronan production of epidermal keratinocytes (in words) [1]: enhance the hyaluronan production; also recorded: potently enhance
Mean hyaluron stimulation vs. control ([1]; test concentration 0.25 μM): 37.0 ± 8.0%
inhibition (skin lightening, in vitro efficacy) ([2]; 26 μM (5 μg/ml)): 15%
inhibition (skin lightening, in vitro efficacy) ([2]; 520 μM (100 μg/ml)): 87%
Mean hyaluronan stimulation compared with positive control TGF-b1 [3]: comparable
Effect on hyaluronan production of dermal fibroblasts (in words) [3]: enhance the hyaluronan production; also recorded: potently enhance
Mean hyaluron stimulation vs. control ([3]; test concentration 0.25 μM): 41.0 ± 6.0%

COc1cc(CCC(=O)c2ccc(O)cc2)ccc1O [Compound of formula IV, 3-(4-Hydroxy-3-methoxyphenyl)-1-(4-hydroxyphenyl)-1-propanone]
Mean hyaluronan stimulation, fold less than that of the positive control retinol [1]: 1.4 fold
Effect on hyaluronan production of epidermal keratinocytes (in words) [1, 5]: enhance the hyaluronan production
Effect on hyaluronan production of epidermal keratinocytes (in words) ([1]; listed as formula IV): powerfully upregulates HA synthesis
Mean hyaluron stimulation vs. control ([1]; test concentration 0.25 μM): 50.5 ± 26.5%
Effect on hyaluronan production of dermal fibroblasts (in words) [3, 5]: no stimulatory activity
Effect on hyaluronan production of dermal fibroblasts (in words) ([3]; listed as formula IV): no direct stimulating effect on dermal fibroblasts
Mean hyaluron stimulation vs. control ([3]; test concentration 0.25 μM): −5.5 ± 2.5%

CC1=C(/C=C/C(C)=C/C=C/C(C)=C/C(=O)O)C(C)(C)CCC1 [Retinoic acid, reference compound]
Mean hyaluron stimulation vs. control ([1]; test concentration 0.1 μM): 116.1 ± 37.3%
Mean hyaluron stimulation vs. control ([3]; test concentration 0.1 μM): −13.0 ± 18.0%

CC1=C(/C=C/C(C)=C/C=C/C(C)=C/CO)C(C)(C)CCC1 [Retinol, reference compound]
Mean hyaluron stimulation vs. control ([1]; test concentration 0.1 μM): 70.8 ± 33.3%
Effect on hyaluronan production of dermal fibroblasts (in words) [3]: no stimulatory activity
Mean hyaluron stimulation vs. control ([3]; test concentration 0.1 μM): 2.0%

COc1cc(CCC(C)=O)ccc1O [Zingerone, 4-(4-hydroxy-3-methoxyphenyl)-2-butanone]
Mean hyaluronan stimulation, fold less than that of the positive control retinol [1]: 1.6 fold
Effect on hyaluronan production of epidermal keratinocytes (in words) [1]: enhance the hyaluronan production; also recorded: more pronounced effect on epidermal keratinocytes
Mean hyaluron stimulation vs. control ([1]; test concentration 0.25 μM): 45.0 ± 24.7%
Effect on hyaluronan production of dermal fibroblasts (in words) [3]: enhance the hyaluronan production; also recorded: increases HA biosynthesis
Mean hyaluron stimulation vs. control ([3]; test concentration 0.25 μM): 15.0 ± 5.3%

CCCCCCCC(=O)CCc1ccc(O)c(OC)c1 [[6]-Paradol, Heptyl 4-hydroxy-3-methoxyphenethyl ketone]
Effect on hyaluronan production of epidermal keratinocytes (in words) [1]: no stimulatory activity; also recorded: without any direct stimulating effect on epidermal keratinocytes
Mean hyaluron stimulation vs. control ([1]; test concentration 0.025 μM): −3.0 ± 3.0%
Mean hyaluronan stimulation compared with positive control TGF-b1 [3]: comparable
Effect on hyaluronan production of dermal fibroblasts (in words) [3]: enhance the hyaluronan production; also recorded: potently stimulates
Mean hyaluron stimulation vs. control ([3]; test concentration 0.025 μM): 38.0 ± 9.0%
Mean HA stimulation versus placebo, dermal HA [4, 6]: 250%
Mean HA stimulation versus placebo, epidermal HA [4, 6]: 124%
Mean hyaluronan stimulation vs. control [%] Dermal [4, 7]: 124%
Mean hyaluronan stimulation vs. control [%] Epidermal [4, 7]: 51%
Effect on dermal and epidermal hyaluronan level of ex vivo human skin (in words) ([4]; 0.0001%, 2 days of topical treatment): significantly stimulates

TGF-b1: Transforming growth factor (TGF)-beta1, positive control known to increase HA synthesis in dermal fibroblasts
Effect on hyaluronan production of epidermal keratinocytes (in words) [1]: no stimulatory activity
Mean hyaluron stimulation vs. control ([1]; test concentration 1 ng/ml): −31.0%
Mean hyaluron stimulation vs. control ([3]; test concentration 1 ng/ml): 39.7 ± 13.9%
